{
  "source": "paper PMC12284294",
  "about": "(iScience, 2025)",
  "key": {"[1]": {"target": "T1, FPR1 (Homo sapiens, UniProt P21462)", "T1 construct": "expressed in transfected cells; host or cells: HEK293T", "T1 sequence (P21462 1-350)": "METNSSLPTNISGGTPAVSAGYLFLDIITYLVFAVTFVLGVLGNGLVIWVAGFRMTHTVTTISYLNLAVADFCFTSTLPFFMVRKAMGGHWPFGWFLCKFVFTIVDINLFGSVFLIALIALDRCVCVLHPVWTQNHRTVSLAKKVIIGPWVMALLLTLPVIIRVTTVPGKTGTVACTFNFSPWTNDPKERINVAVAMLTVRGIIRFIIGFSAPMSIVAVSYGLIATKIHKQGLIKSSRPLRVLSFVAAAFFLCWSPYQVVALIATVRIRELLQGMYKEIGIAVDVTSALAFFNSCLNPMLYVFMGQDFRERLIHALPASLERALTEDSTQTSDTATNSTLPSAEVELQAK", "experiment": "biochemical", "assay_type": "binding"}, "[2]": {"target": "T2, FPR3 (Homo sapiens, UniProt P25089)", "T2 construct": "expressed in transfected cells; host or cells: HEK293T", "T2 sequence (P25089 1-353)": "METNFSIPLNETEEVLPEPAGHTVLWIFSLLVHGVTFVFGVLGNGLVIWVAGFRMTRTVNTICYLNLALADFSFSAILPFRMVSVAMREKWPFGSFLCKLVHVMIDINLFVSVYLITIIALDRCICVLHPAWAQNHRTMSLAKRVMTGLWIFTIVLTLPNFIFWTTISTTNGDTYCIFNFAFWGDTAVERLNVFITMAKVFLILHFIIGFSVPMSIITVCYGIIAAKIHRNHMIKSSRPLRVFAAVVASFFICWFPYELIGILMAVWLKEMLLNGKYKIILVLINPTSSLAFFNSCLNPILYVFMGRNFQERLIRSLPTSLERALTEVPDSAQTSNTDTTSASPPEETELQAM", "experiment": "cell-based", "assay_type": "binding"}, "[3]": {"target": "T3, FPR2 (Homo sapiens, UniProt P25090)", "T3 construct": "expressed in transfected cells; host or cells: HEK293T", "T3 sequence (P25090 1-351)": "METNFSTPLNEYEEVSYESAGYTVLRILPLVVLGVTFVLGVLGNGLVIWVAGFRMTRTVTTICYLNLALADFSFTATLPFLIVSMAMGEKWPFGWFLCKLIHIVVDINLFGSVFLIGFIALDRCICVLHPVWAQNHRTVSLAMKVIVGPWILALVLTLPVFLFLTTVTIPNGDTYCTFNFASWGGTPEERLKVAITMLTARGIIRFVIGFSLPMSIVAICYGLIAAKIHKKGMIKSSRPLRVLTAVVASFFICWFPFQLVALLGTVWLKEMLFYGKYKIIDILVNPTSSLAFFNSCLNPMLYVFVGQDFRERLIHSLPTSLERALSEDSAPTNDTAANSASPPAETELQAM", "experiment": "cell-based", "assay_type": "binding"}, "[4]": {"target": "T1, FPR1", "experiment": "cell-based", "assay_type": "binding"}, "[5]": {"target": "T1, FPR1", "assay_type": "cell-based"}, "[6]": {"test_system": "human polymorphonuclear granulocytes (PMN; neutrophils)", "assay_type": "cell-based", "conditions": "SARS-CoV-2 omicron B.1.1.529 spike pool peptides, 10 µM, PMN, n=6"}, "[7]": {"test_system": "FPR1, FPR2, FPR3, PMN", "assay_type": "cell-based, human"}, "[8]": {"conditions": "[…], it matches an identified peptide or IgG epitope of COVID-19 patients"}},
  "note": "Read-outs that look alike come from different tables or passages of the source.",
  "data": [
    {"molecule": "CC[C@H](C)[C@H](NC(=O)[C@H](Cc1ccc(O)cc1)NC(=O)[C@H](CCC(N)=O)NC(=O)[C@@H](N)CCC(=O)O)C(=O)N[C@@H](CCCCN)C(=O)N[C@@H](Cc1c[nH]c2ccccc12)C(=O)N1CCC[C@H]1C(=O)N[C@@H](Cc1c[nH]c2ccccc12)C(=O)N[C@@H](Cc1ccc(O)cc1)C(=O)N[C@H](C(=O)N[C@@H](Cc1c[nH]c2ccccc12)C(=O)N[C@@H](CC(C)C)C(=O)O)C(C)C", "note": "[CV3]", "values": [
      {"measurement": "IC50", "setting": "[1]", "value": 3.8, "unit": "µM"}
    ]},
    {"molecule": "CC[C@H](C)[C@H](NC(=O)[C@H](Cc1ccc(O)cc1)NC(=O)[C@H](Cc1c[nH]c2ccccc12)NC(=O)[C@@H]1CCCN1C(=O)[C@H](Cc1c[nH]c2ccccc12)NC(=O)[C@H](CCCCN)NC(=O)[C@@H](NC(=O)[C@H](Cc1ccc(O)cc1)NC(=O)[C@H](CCC(N)=O)NC(=O)[C@@H](N)CCC(=O)O)[C@@H](C)CC)C(=O)N[C@@H](Cc1c[nH]c2ccccc12)C(=O)N[C@@H](CC(C)C)C(=O)O", "note": "[CV7]", "values": [
      {"measurement": "IC50", "setting": "[1]; read-out: IC50 in the BRET assay", "value": 5.1, "unit": "µM"},
      {"measurement": "Kd", "setting": "[2]", "value": 0.347, "unit": "µM"},
      {"measurement": "Kd", "setting": "[3]", "value": 0.489, "unit": "µM"},
      {"measurement": "Kd", "setting": "[4]", "value": 0.014, "unit": "µM"}
    ]},
    {"molecule": "DGYFKIYSKHTPIIV", "values": [
      {"measurement": "non-activators of FPR1 and PMNs: FPR1", "setting": "[5]", "value": "non-activators of FPR1 and PMNs"},
      {"measurement": "non-activators of FPR1 and PMNs: PMNs", "setting": "[6]", "value": "non-activators of FPR1 and PMNs"},
      {"measurement": "Match with activator (region): Receptor", "setting": "[7]", "value": "FPR2 + FPR3"}
    ]},
    {"molecule": "DYSVLYNLAPFFTFKCYGV", "values": [
      {"measurement": "Match with activator (region): Receptor", "setting": "[7]; [8]", "value": "PMN"}
    ]},
    {"molecule": "DYSVLYNLAPFFTFKCYGVSPTK", "values": [
      {"measurement": "Match with activator (region): Receptor", "setting": "[7]; [8]", "value": "FPR3"}
    ]},
    {"molecule": "EPEDLPQGFSALEPL", "values": [
      {"measurement": "significant PMN activators (group of the spike peptide pool screening)", "setting": "[6]", "value": "significant PMN activators"},
      {"measurement": "Match with activator (region): Receptor", "setting": "[7]; [8]", "value": "PMN"}
    ]},
    {"molecule": "EQYIKWPWYIWL", "values": [
      {"measurement": "Match with activator (region): Receptor", "setting": "[7]", "value": "All FPRs + PMN"}
    ]},
    {"molecule": "ITNLCPFDEVFNATR", "values": [
      {"measurement": "non-activators of FPR1 and PMNs: FPR1", "setting": "[5]", "value": "non-activators of FPR1 and PMNs"},
      {"measurement": "non-activators of FPR1 and PMNs: PMNs", "setting": "[6]", "value": "non-activators of FPR1 and PMNs"},
      {"measurement": "Match with activator (region): Receptor", "setting": "[7]; [8]", "value": "FPR3"}
    ]},
    {"molecule": "KVSGNYNYLYRLFRK", "values": [
      {"measurement": "non-activators of FPR1 and PMNs: FPR1", "setting": "[5]", "value": "non-activators of FPR1 and PMNs"},
      {"measurement": "non-activators of FPR1 and PMNs: PMNs", "setting": "[6]", "value": "non-activators of FPR1 and PMNs"},
      {"measurement": "Match with activator (region): Receptor", "setting": "[7]; [8]", "value": "FPR3"}
    ]},
    {"molecule": "LLLQYGSFCTQLKRALTGI", "values": [
      {"measurement": "Match with activator (region): Receptor", "setting": "[7]", "value": "FPR3"}
    ]},
    {"molecule": "NFNFNGLKGTGVLTE", "values": [
      {"measurement": "non-activators of FPR1 and PMNs: FPR1", "setting": "[5]", "value": "non-activators of FPR1 and PMNs"},
      {"measurement": "non-activators of FPR1 and PMNs: PMNs", "setting": "[6]", "value": "non-activators of FPR1 and PMNs"},
      {"measurement": "Match with activator (region): Receptor", "setting": "[7]; [8]", "value": "FPR3"}
    ]},
    {"molecule": "QVKQIYKTPPIKYFG", "values": [
      {"measurement": "significant PMN activators (group of the spike peptide pool screening)", "setting": "[6]", "value": "significant PMN activators"},
      {"measurement": "Match with activator (region): Receptor", "setting": "[7]", "value": "PMN+ FPR2"},
      {"measurement": "Match with activator (region): Receptor", "setting": "[7]; [8]", "value": "PMN + FPR2"}
    ]},
    {"molecule": "QVKQIYKTPPIKYFGGFNFSQILPDPS", "values": [
      {"measurement": "Match with activator (region): Receptor", "setting": "[7]", "value": "FPR3"}
    ]},
    {"molecule": "TYGVGHQPYRVVVLSFELL", "values": [
      {"measurement": "Match with activator (region): Receptor", "setting": "[7]; [8]", "value": "PMN + FPR1"}
    ]}
  ]
}
